Measured values from ChEMBL document CHEMBL1148904, “Iridoid glycosides from Eremostachys glabra” (J Nat Prod, 2004).

system: Radical scavenging activity; experiment: Antioxidant activity assessed as DPPH radical scavenging activity after 30 mins; type: functional

In order of falling RC50:
1. COC(=O)C1=CO[C@@H](O[C@@H]2O[C@H](CO)[C@@H](O)[C@H](O)[C@H]2O)[C@H]2[C@H](C)C[C@@H](O)[C@@]12O  4.9 ×10⁻¹ mg/ml
2. COC(=O)C1=CO[C@@H](O[C@@H]2O[C@H](CO)[C@@H](O)[C@H](O)[C@H]2O)[C@H]2C(C)=C[C@@H](O)[C@@]12O  4.1 ×10⁻¹ mg/ml
3. COC(=O)C1=CO[C@@H](O[C@@H]2O[C@H](CO)[C@@H](O)[C@H](O)[C@H]2O)[C@@H]2[C@@H]1[C@@H](O)C[C@]2(C)OC(C)=O  1.1 ×10⁻¹ mg/ml

`O=c1c(O)c(-c2ccc(O)c(O)c2)oc2cc(O)cc(O)c12` showed an RC50 of 2.88 ×10⁻⁵ mg/ml.
